Data: paper PMC2932887 (Journal of medicinal chemistry, 2010)
Where two headings read alike, the source gives them in different places.

How the values were obtained:
recombinant rat NAAA [1] = target: T1, recombinant rat NAAA (Rattus norvegicus, UniProt Q5KTC7); test: NAAA assay: inhibition of heptadecenoylethanolamide hydrolysis; assay type: biochemical; conditions: for NAAA inhibitory activity (in words): recombinant rat NAAA
T1 sequence (Q5KTC7 131-362 limits assumed): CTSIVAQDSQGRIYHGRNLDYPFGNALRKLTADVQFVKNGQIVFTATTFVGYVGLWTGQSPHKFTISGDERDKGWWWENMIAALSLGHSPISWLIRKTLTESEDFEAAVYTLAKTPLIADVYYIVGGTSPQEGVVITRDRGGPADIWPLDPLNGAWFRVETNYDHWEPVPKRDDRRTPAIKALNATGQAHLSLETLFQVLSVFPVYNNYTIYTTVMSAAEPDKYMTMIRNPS
T1 sequence (Q5KTC7 34-130 partner limits assumed): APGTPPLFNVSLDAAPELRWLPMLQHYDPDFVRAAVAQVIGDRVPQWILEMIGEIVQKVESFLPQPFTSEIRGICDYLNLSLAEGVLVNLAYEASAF

recombinant rat NAAA [2] = target: T1, recombinant rat NAAA; conditions: intracellular NAAA activity; cited from earlier work
FAAH = conditions: cited from earlier work
monoacylglycerol lipase = conditions: cited from earlier work
[3] = tested on: diacylglycerol lipase type-α; conditions: cited from earlier work
[4] = target: T2, Recombinant NAAA expressed in HEK-293 Cells (Rattus norvegicus, UniProt Q5KTC7); test: Michaelis-Menten analysis of NAAA in presence of inhibitor; assay type: biochemical
T2 sequence (Q5KTC7 131-362 limits assumed): T1 sequence (Q5KTC7 131-362 limits assumed)
T2 sequence (Q5KTC7 34-130 partner limits assumed): T1 sequence (Q5KTC7 34-130 partner limits assumed)

NAAA inhibitory activity (in words) (recombinant rat NAAA [1])	SMILES	further results
entirely devoid of inhibitory activity	O=C(CCc1ccccc1)NC1CCC1=O (centres unmarked) [compound 15, N-(2-Oxocyclobutyl)-3-phenylpropionamide]	–
inactivity	O=C(N[C@H]1CCOC1=O)c1ccc2ccccc2c1 [11j, (S)-N-(2-Oxotetrahydrofuran-3-yl)-2-naphthamide]	–
entirely devoid of inhibitory activity	O=C(CCc1ccccc1)N[C@H]1CCOC1=O [11a, (S)-N-(2-Oxotetrahydrofuran-3-yl)-3-phenylpropionamide]	–
–	O=C(CCc1ccccc1)N[C@H]1COC1=O [7a, (S)-N-(2-Oxo-3-oxetanyl)-3-phenylpropionamide]	mechanism of NAAA inhibition (recombinant rat NAAA [2]): non-competitive; inhibition of FAAH (FAAH): no inhibition; inhibition of monoacylglycerol lipase (monoacylglycerol lipase): no inhibition; inhibition of diacylglycerol lipase type-α [3]: no inhibition
entirely devoid of inhibitory activity	O=C(CCc1ccccc1)N[C@@H](CO)C(=O)O [compound 10, (S)-3-Hydroxy-2-(3-Phenylpropionylamino)propionic Acid]	–
low potency	O=C1OCC1CCCCc1ccccc1 (racemic) [compound 23, rac-3-(4-Phenylbutyl)oxetan-2-one]	–
–	O=C(N[C@H]1COC1=O)c1ccc(-c2ccccc2)cc1 [7h, (S)-N-(2-Oxo-3-oxetanyl)biphenyl-4-carboxamide]	mechanism of NAAA inhibition (recombinant rat NAAA [1]; preincubation time-course, Michaelis-Menten analysis, overnight dialysis): rapid, noncompetitive and reversible; Vmax ([4]; 100 nM inhibitor): 10.8 ± 2.5 nmol/min/mg; Vmax ([4]; 200 nM inhibitor): 6.2 ± 0.2 nmol/min/mg
entirely devoid of inhibitory activity	O=C(CCc1ccccc1)NC1CCC1 [compound 12, N-Cyclobutyl-3-phenylpropionamide]	–
complete loss of activity	C[C@H]1OC(=O)[C@H]1NC(=O)CCc1ccccc1 [20a, (2R,3S)-N-(2-Methyl-4-oxo-3-oxetanyl)-3-phenylpropionamide]	–
